# Measured values as given in patent US9809573B2, “Substituted pyridine derivatives useful as GSK-3 inhibitors” (priority 2013, dated 2017).
# Columns and labels:
# [1] = molecular target: GSK3β (Homo sapiens, UniProt P49841); experiment: GSK3β kinase assay (Caliper LabChip3000, fluoresceinated peptide substrate); type: biochemical; details: first value of the cell; 250 pM enzyme, 20 uM ATP, 20 hours at room temperature; read-out: GSK3β/α (nM): GSK3β IC50
# Method: (§1) The kinase assay was performed in V-bottom 384-well plates. […] The reaction was incubated at room temperature for 20 hours and terminated by adding 45 μl of 35 mM EDTA to each sample. The reaction mixture was analyzed on the Caliper LabChip3000 (Caliper, Hopkinton, Mass.) by electrophoretic separation of the unphosphorylated substrate and phosphorylated product. […] Compounds were dissolved at 10 mM in dimethylsulfoxide (DMSO) and evaluated at eleven concentrations. IC50 values were derived by non-linear regression analysis.
# [2] = molecular target: GSK3α (Homo sapiens, UniProt P49840); experiment: biochemical; details: second value of the cell; 250 pM enzyme, 20 uM ATP, 20 hours at room temperature; read-out: GSK3β/α (nM): GSK3α IC50
# Chain of GSK3α (P49840 whole entry, species assumed): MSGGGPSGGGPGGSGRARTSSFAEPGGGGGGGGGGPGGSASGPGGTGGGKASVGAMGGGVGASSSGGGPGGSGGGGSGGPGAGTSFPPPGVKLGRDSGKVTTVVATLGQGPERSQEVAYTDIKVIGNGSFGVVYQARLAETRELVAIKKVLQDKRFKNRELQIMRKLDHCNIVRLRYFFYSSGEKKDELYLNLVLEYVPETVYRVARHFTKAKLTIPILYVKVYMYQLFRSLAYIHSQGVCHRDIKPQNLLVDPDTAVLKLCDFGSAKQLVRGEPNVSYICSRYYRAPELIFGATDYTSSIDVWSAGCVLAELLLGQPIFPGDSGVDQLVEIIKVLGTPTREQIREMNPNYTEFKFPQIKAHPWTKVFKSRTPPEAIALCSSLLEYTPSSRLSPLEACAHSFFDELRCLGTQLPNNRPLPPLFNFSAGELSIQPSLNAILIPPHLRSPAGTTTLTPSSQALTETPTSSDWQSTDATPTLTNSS
# Method: as §1
# Chain of GSK3β (P49841 whole entry, species assumed): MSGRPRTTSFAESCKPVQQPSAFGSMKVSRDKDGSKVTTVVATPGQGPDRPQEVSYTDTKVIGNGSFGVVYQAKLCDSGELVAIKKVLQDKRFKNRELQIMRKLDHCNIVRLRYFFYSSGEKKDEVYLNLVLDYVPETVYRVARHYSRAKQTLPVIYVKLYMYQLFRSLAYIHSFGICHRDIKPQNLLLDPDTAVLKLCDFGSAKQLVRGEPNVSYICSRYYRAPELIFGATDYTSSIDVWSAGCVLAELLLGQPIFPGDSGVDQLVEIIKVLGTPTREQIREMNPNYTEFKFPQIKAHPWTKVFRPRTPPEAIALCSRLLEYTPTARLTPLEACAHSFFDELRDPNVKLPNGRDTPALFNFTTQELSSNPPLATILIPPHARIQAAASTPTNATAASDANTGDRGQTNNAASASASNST
Molecule,IC50 [1],IC50 [2]
"2-((1,3-Cis)-3-chlorocyclobutanecarboxamido)-N-(4-phenylpyridin-3-yl)isonicotinamide [Example 221]",0.16 nM,0.09 nM
"2-((1,3-Trans)-3-chlorocyclobutanecarboxamido)-N-(4-phenylpyridin-3-yl)isonicotinamide [Example 220]",0.37 nM,0.22 nM
"O=C(Nc1cncc2c1CCCC2)c1ccnc(NC(=O)C2CC2)c1 [Example 21, 2-(Cyclopropanecarboxamido)-N-(5,6,7,8-tetrahydroisoquinolin-4-yl)isonicotinamide]",13 nM,3.3 nM
"O=C(Nc1cnccc1-c1ccc(C(F)(F)F)cc1C(F)(F)F)c1ccnc(NC(=O)C2CC2)c1 [Example 65, N-(4-(2,4-bis(trifluoromethyl)phenyl)pyridin-3-yl)-2-(cyclopropanecarboxamido)isonicotinamide]",29 nM,25 nM
"N#Cc1cc(F)ccc1-c1ccncc1NC(=O)c1ccnc(NC(=O)C2CC2)c1 [Example 89, N-(4-(2-cyano-4-fluorophenyl)pyridin-3-yl)-2-(cyclopropanecarboxamido)isonicotinamide]",470 nM,190 nM
"Cc1ccccc1-c1cncc(NC(=O)c2ccnc(NC(=O)C3CC3)c2)c1 [Example 122, 2-(cyclopropanecarboxamido)-N-(5-(o-tolyl)pyridin-3-yl)isonicotinamide]",7.3 nM,3.3 nM
O=C(Nc1cncc(-c2csc3ccccc23)c1)c1ccnc(NC(=O)C2CC2)c1 [Example 129],5.1 nM,7 nM
"O=C1CC(C(=O)Nc2cc(C(=O)Nc3cnccc3-c3ccccc3)ccn2)C1 [Example 218, 2-(3-Oxocyclobutanecarboxamido)-N-(4-phenylpyridin-3-yl)isonicotinamide]",3.9 nM,–

# More lines, in order of falling IC50 [1], values ahead:
IC50 [1],IC50 [2],Molecule
2.7 nM,–,"CC(C)c1ccccc1-c1cncc(NC(=O)c2ccnc(NC(=O)C3CC3)c2)c1 [Example 134, 2-(cyclopropanecarboxamido)-N-(5-(2-isopropylphenyl)pyridin-3-yl)isonicotinamide]"
2.7 nM,–,"Cc1cc(-c2cncc(NC(=O)c3ccnc(NC(=O)C4CC4)c3)c2)c(C)s1 [Example 135, 2-(cyclopropanecarboxamido)-N-(5-(2,5-dimethylthiophen-3-yl)pyridin-3-yl)isonicotinamide]"
2.5 nM,1.1 nM,"O=C(Nc1cncc(-c2cccc(F)c2)c1)c1ccnc(NC(=O)C2CC2)c1 [Example 126, 2-(cyclopropanecarboxamido)-N-(5-(3-fluorophenyl)pyridin-3-yl)isonicotinamide]"
2.4 nM,0.99 nM,"O=C(Nc1cncc(-c2ccoc2)c1)c1ccnc(NC(=O)C2CC2)c1 [Example 121, 2-(cyclopropanecarboxamido)-N-(5-(furan-3-yl)pyridin-3-yl)isonicotinamide]"
2 nM,0.86 nM,"O=C(Nc1cncc(-c2cccnc2)c1)c1ccnc(NC(=O)C2CC2)c1 [Example 125, N-([3,3′-bipyridin]-5-yl)-2-(cyclopropanecarboxamido)isonicotinamide]"
1.6 nM,–,"O=C1CCC(C(=O)Nc2cc(C(=O)Nc3cnccc3-c3ccccc3)ccn2)C1 (stereo not drawn) [Example 229, 2-(3-Oxocyclopentanecarboxamido)-N-(4-phenylpyridin-3-yl)isonicotinamide]"
1.3 nM,0.54 nM,"O=C(Nc1cncc(-c2ccccc2Cl)c1)c1ccnc(NC(=O)C2CC2)c1 [Example 127, N-(5-(2-chlorophenyl)pyridin-3-yl)-2-(cyclopropanecarboxamido)isonicotinamide]"
1.2 nM,1.9 nM,"O=C(Nc1cncc(-c2ccsc2)c1)c1ccnc(NC(=O)C2CC2)c1 [Example 117, 2-(cyclopropanecarboxamido)-N-(5-(thiophen-3-yl)pyridin-3-yl)isonicotinamide]"
0.5 nM,2.6 nM,"O=C(Nc1cncc(-c2ccccn2)c1)c1ccnc(NC(=O)C2CC2)c1 [Example 128, N-([2,3′-bipyridin]-5′-yl)-2-(cyclopropanecarboxamido)isonicotinamide]"
